From paper PMC4553520, “Laboratory and Simulated Field Bioassays to Evaluate Larvicidal Activity of Pinus densiflora Hydrodistillate, Its Constituents and Structurally Related Compounds against Aedes albopictus, Aedes aegypti and Culex pipiens pallens in Relation to Their Inhibitory Effects on Acetylcholinesterase Activity” (Insects, 2013) come the findings set out here.

≈ marks a conversion by molar mass, not a printed value.

Data set [1] relates to early third-instar larvae of Ae. aegypti. The data set can be described thus: Direct-contact mortality bioassay, Ae. aegypti larvae. To be noted: for LC50 (Ae. aegypti), mg/L (95% CL): early third-instar larvae, 24 h exposure, direct contact; for LC50: Aedes aegypti, 24 h, read-out: LC50 (Ae. aegypti), mg/L (95% CL). As for the experimental part: (§1) Direct-contact mortality bioassays were employed to evaluate the toxicity of all compounds, using early third-instar larvae of each mosquito species. Each compound was dissolved in methanol, and then further diluted in distilled water containing Triton X-100 (20 µL/L). Groups of 20 mosquito larvae of each species were put into separate paper cups (270 mL), each containing different compound solutions (250 mL). The toxicity of each compound was determined by repeating this experimental procedure with different concentrations, ranging from 5 to 200 mg/L. Temephos and fenthion served as standard references and were similarly formulated as well. Controls contained only methanol-Triton X-100 carrier solution in distilled water.
(§2) Both treated and control larvae were kept under the same conditions as those used for colony maintenance. […] Due to certain constraints arising from the number of available larvae, all necessary bioassays could not be conducted simultaneously and thus, treatments were conducted over a period of time, with a separate control treatment included each time. Freshly prepared compound solutions were used for each round of bioassays. All bioassays were repeated three times.
(§3) Concentration-mortality data were subjected to probit analysis using SAS [20]. […] Furthermore, for the compounds tested in AChE inhibition assays, a correlation analysis between their LC50 values and IC50 values was conducted using SAS [20].

Data set [2] has as its system early third-instar larvae of Cx. p. pallens. Description: Direct-contact mortality bioassay, laboratory-reared Cx. p. pallens larvae. To be noted: for LC50 (Cx p. pallens), mg/L (95% CL): laboratory-reared early third-instar larvae, 24 h exposure, direct contact; for LC50: Culex pipiens, 24 h, read-out: LC50 (Cx p. pallens), mg/L (95% CL). The protocol:
as §1, §2, §3

Data set [3] relates to early third-instar larvae of Ae. albopictus. The data set can be described thus: Direct-contact mortality bioassay, Ae. albopictus larvae. To be noted: for LC50 (Ae. albopictus), mg/L (95% CL): early third-instar larvae, 24 h exposure, direct contact; for LC50: Aedes albopictus, 24 h, read-out: LC50 (Ae. albopictus), mg/L (95% CL). As for the experimental part: as §1, §2, §3

Turning to `CC1=C[C@H](O)[C@H]2C[C@@H]1C2(C)C` (relative stereo) [(S)-cis-verbenol], the “LC50 (Ae. aegypti), mg/L (95% CL)” value in data set [1] is listed as more than 150 mg/L. Besides, the “LC50 (Cx p. pallens), mg/L (95% CL)” value in data set [2] is given as 140.41 (124.89–167.57) mg/L. The “LC50 (Ae. albopictus), mg/L (95% CL)” value in data set [3] was 136.86 (121.92–161.87) mg/L.
The matching figures for `CC1(C)[C@@H]2CC[C@H](CO)[C@H]1C2` (relative stereo) [(−)-cis-myrtanol]: more than 150 mg/L, more than 150 mg/L and more than 150 mg/L.
Taken in the same sequence, the figures for `CC(C)=CCCC(C)CC=O` (single isomer, unassigned; (+)) [(+)-citronellal] were 48.23 (42.42–55.64) mg/L, 49.47 (43.52–57.04) mg/L and 46.39 (41.08–52.95) mg/L.
Taken in the same sequence, the figures for `CC1=CCC(O)(C(C)C)CC1` (single isomer, unassigned; (+)) [(+)-terpinen-4-ol] were 78.73 (71.24–85.73) mg/L, 86.25 (78.22–95.55) mg/L and 98.28 (91.85–105.07) mg/L.
Turning to `CC1(C)C2CC=C(CO)C1C2` (single isomer, unassigned; (-)) [(−)-myrtenol], in data set [1], the “LC50 (Ae. aegypti), mg/L (95% CL)” value is listed as more than 150 mg/L. Moreover, the “LC50 (Cx p. pallens), mg/L (95% CL)” value in data set [2] is recorded as more than 150 mg/L. In addition, in data set [3], the “LC50 (Ae. albopictus), mg/L (95% CL)” value was more than 150 mg/L.
With `CC12CCC(CC1)C(C)(C)O2` [1,8-cineole], the LC50 amounted to 73.3 mg/L (≈ 475 µM) in data set [1], 72.9 mg/L (≈ 472 µM) in data set [2] and 73.5 mg/L (≈ 476 µM) in data set [3].
The matching figures for `CC1=CC[C@@H]2C[C@H]1C2(C)C` [(1R)-(+)-α-pinene]: 51.3 mg/L (≈ 376 µM), 60.8 mg/L (≈ 447 µM) and 55.6 mg/L (≈ 408 µM).
Taken in the same sequence, the figures for `CC1=CC[C@H]2C[C@@H]1C2(C)C` [(1S)-(−)-α-pinene] were 40 mg/L (≈ 293 µM), 32 mg/L (≈ 235 µM) and 28.6 mg/L (≈ 210 µM).
In the case of `CC(C)=CCCC(C)CCO` (stereo not drawn) [(+)-β-citronellol], the “LC50 (Ae. aegypti), mg/L (95% CL)” value in data set [1] was 93.46 (85.80–101.82) mg/L. Further, the “LC50 (Cx p. pallens), mg/L (95% CL)” value in data set [2] is 87.81 (80.62–95.50) mg/L. Besides, the “LC50 (Ae. albopictus), mg/L (95% CL)” value in data set [3] is 90.89 (83.26–99.00) mg/L.
For `C=C(C)[C@H]1CC=C(C)C(=O)C1` [(S)-(+)-carvone], the “LC50 (Ae. aegypti), mg/L (95% CL)” value in data set [1] is reported as 42.14 (39.62–44.62) mg/L. In addition, the “LC50 (Cx p. pallens), mg/L (95% CL)” value in data set [2] was 46.19 (43.54–49.12) mg/L. Further, the “LC50 (Ae. albopictus), mg/L (95% CL)” value in data set [3] is 43.83 (41.78–45.91) mg/L.
Consider `CC(C)=CCC[C@H](C)CC=O` [(−)-citronellal], for which the values for the LC50 in data set [1], in data set [2] and in data set [3] were 37.5 mg/L (≈ 243 µM), 41.9 mg/L (≈ 272 µM) and 41.1 mg/L (≈ 266 µM), respectively.
The matching figures for `CC1=CC(=O)[C@H]2C[C@@H]1C2(C)C` [(−)-verbenone]: 96.8 mg/L (≈ 644 µM), 89.1 mg/L (≈ 593 µM) and 89.4 mg/L (≈ 595 µM).
`CC(C)=CCCC(C)CCO` (stereo not drawn) [(−)-β-citronellol]: in data set [1], the “LC50 (Ae. aegypti), mg/L (95% CL)” value is 75.31 (68.31–83.22) mg/L. Besides, the “LC50 (Cx p. pallens), mg/L (95% CL)” value in data set [2] is 66.26 (59.63–73.33) mg/L. For the same compound, the “LC50 (Ae. albopictus), mg/L (95% CL)” value in data set [3] is reported as 71.99 (64.67–80.37) mg/L.
In the case of `C=C1CC[C@@H]2[C@H]([C@@H]3[C@H](C)CC[C@@H]13)C2(C)C` [Aromadendrene], the “LC50 (Ae. aegypti), mg/L (95% CL)” value in data set [1] is listed as more than 150 mg/L. Besides, the “LC50 (Cx p. pallens), mg/L (95% CL)” value in data set [2] is 147.91 (127.93–188.26) mg/L. The “LC50 (Ae. albopictus), mg/L (95% CL)” value in data set [3] is given as 129.21 (118.02–145.97) mg/L.
`CC1(C)C2CCC1(C)C(O)C2` (stereo not drawn) [Borneol]: the LC50 in data set [1], in data set [2] and in data set [3] was more than 150 mg/L in each case.
For `CC(=O)OC1CC2CCC1(C)C2(C)C` (stereo not drawn) [Bornyl acetate], the LC50 in data set [1], in data set [2] and in data set [3] was more than 150 mg/L throughout.
On to `C=C1C2CCC(C2)C1(C)C` (stereo not drawn) [Camphene], for which the LC50 in data set [1] was 72.9 mg/L (≈ 535 µM); in data set [2], 80.1 mg/L (≈ 588 µM); in data set [3], 79.1 mg/L (≈ 581 µM).
Taken in the same sequence, the figures for `CC12CCC(CC1=O)C2(C)C` (stereo not drawn) [Camphor] were more than 150 mg/L, more than 150 mg/L and more than 150 mg/L.
Taken in the same sequence, the figures for `Cc1ccc(C(C)C)cc1O` [Carvacrol] were 101 mg/L (≈ 673 µM), 91.9 mg/L (≈ 612 µM) and 95 mg/L (≈ 633 µM).
The matching figures for `C=C(C)C1CC=C(C)[C@@H](O)C1` (stereo partly drawn) [Carveol]: 124 mg/L (≈ 814 µM), 114 mg/L (≈ 746 µM) and 121 mg/L (≈ 796 µM).
For `C=C1CC[C@H]2O[C@]2(C)CC[C@@H]2[C@@H]1CC2(C)C` [Caryophyllene oxide], in data set [1], the “LC50 (Ae. aegypti), mg/L (95% CL)” value is 113.00 (104.54–123.59) mg/L. Also, the “LC50 (Cx p. pallens), mg/L (95% CL)” value in data set [2] is 126.28 (110.92–158.13) mg/L. Also, the “LC50 (Ae. albopictus), mg/L (95% CL)” value in data set [3] was 107.62 (99.82–116.81) mg/L.
On to `CC(C)=CCC/C(C)=C/CO` [Geraniol], for which the LC50 came out at 73.4 mg/L (≈ 476 µM) in data set [1], 57 mg/L (≈ 369 µM) in data set [2] and 68.2 mg/L (≈ 442 µM) in data set [3].
Taken in the same sequence, the figures for `CC(=O)OC/C=C(\C)CCC=C(C)C` [Geranyl acetate] were 21.4 mg/L, 30.3 mg/L and 33 mg/L.
The matching figures for `C=CC(C)(O)CCC=C(C)C` (stereo not drawn) [Linalool]: 113 mg/L (≈ 736 µM), 144 mg/L (≈ 935 µM) and 129 mg/L (≈ 837 µM).
For `C=CC(C)(CCC=C(C)C)OC(C)=O` (stereo not drawn) [Linanyl acetate], the results for the LC50 in data set [1], in data set [2] and in data set [3] were 97.8 mg/L, 97 mg/L and 98.1 mg/L, respectively.
In the case of `CC1CCC(C(C)C)C(O)C1` (stereo not drawn) [Menthol], the LC50 turned out to be 81.2 mg/L (≈ 520 µM) in data set [1], 67.3 mg/L (≈ 430 µM) in data set [2] and 69.6 mg/L (≈ 445 µM) in data set [3].
The matching figures for `C=CC(=C)CCC=C(C)C` [Myrcene, β-myrcene]: 39.5 mg/L (≈ 290 µM), 41.3 mg/L (≈ 303 µM) and 36 mg/L (≈ 264 µM).
Taken in the same sequence, the figures for `CC(C)=CCC/C(C)=C\CO` [Nerol] were 121 mg/L (≈ 783 µM), 111 mg/L (≈ 723 µM) and 112 mg/L (≈ 723 µM).
Take `CC(=O)OC(C)(C)C1CC=C(C)CC1` (stereo not drawn) [Terpinyl acetate]: in data set [1], the “LC50 (Ae. aegypti), mg/L (95% CL)” value is recorded as 96.32 (89.89–103.04) mg/L. In data set [2], the “LC50 (Cx p. pallens), mg/L (95% CL)” value is listed as 58.27 (52.60–64.82) mg/L. In addition, the “LC50 (Ae. albopictus), mg/L (95% CL)” value in data set [3] is 72.39 (65.05–80.55) mg/L.
As to `Cc1cccc(C(C)C)c1` [m-cymene], the LC50 in data set [1] worked out at 69.7 mg/L (≈ 519 µM); in data set [2] it was 59.4 mg/L (≈ 442 µM); in data set [3] it was 62 mg/L (≈ 462 µM).
In the case of `Cc1ccccc1C(C)C` [o-cymene], the “LC50 (Ae. aegypti), mg/L (95% CL)” value in data set [1] is 39.60 (33.25–46.71) mg/L. Further, the “LC50 (Cx p. pallens), mg/L (95% CL)” value in data set [2] is recorded as 47.78 (40.96–55.39) mg/L. The “LC50 (Ae. albopictus), mg/L (95% CL)” value in data set [3] is 48.57 (42.14–55.77) mg/L.
In the case of `Cc1ccc(C(C)C)cc1` [p-cymene], the results for the LC50 in data set [1], in data set [2] and in data set [3] were 33.5 mg/L (≈ 249 µM), 29.7 mg/L (≈ 221 µM) and 32.8 mg/L (≈ 245 µM), respectively.
The matching figures for `CC1=CC[C@H](C(C)C)C=C1` [α-phellandrene]: 19.4 mg/L (≈ 142 µM), 14 mg/L (≈ 103 µM) and 16.9 mg/L (≈ 124 µM).
For the compound `CC1=CC=C(C(C)C)CC1` [α-terpinene], the LC50 was found to be 24.9 mg/L (≈ 182 µM) in data set [1], 23.9 mg/L (≈ 175 µM) in data set [2] and 21.9 mg/L (≈ 161 µM) in data set [3].
The matching figures for `C=C1CC/C=C(\C)CC[C@@H]2[C@@H]1CC2(C)C` [β-caryophyllene]: 38.6 mg/L (≈ 189 µM), 47.8 mg/L (≈ 234 µM) and 39.5 mg/L (≈ 193 µM).
